In assay [1] the target is GLP-1R (Homo sapiens, UniProt P43220, D198A). Nature of the assay: Whole-cell binding assay, competition with 125I-GLP-1(7-36)NH2. Details: Flag; expressed in transfected cells. The following applies: GLP-1R D198A, CHO-K1. The gist of the method: (§1)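 CHO-K1 cells transiently transfected with WT or mutant receptor constructs, washed in F-12 with 0.1% BSA or casein/33 mM HEPES and incubated 2 h at 37 °C. Bound radioactivity counted after Triton lysis; data normalized to WT and fitted to a three-parameter logistic equation.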
GLP-1R (Homo sapiens, UniProt P43220, D198A), sequence (P43220 24-463 D198A): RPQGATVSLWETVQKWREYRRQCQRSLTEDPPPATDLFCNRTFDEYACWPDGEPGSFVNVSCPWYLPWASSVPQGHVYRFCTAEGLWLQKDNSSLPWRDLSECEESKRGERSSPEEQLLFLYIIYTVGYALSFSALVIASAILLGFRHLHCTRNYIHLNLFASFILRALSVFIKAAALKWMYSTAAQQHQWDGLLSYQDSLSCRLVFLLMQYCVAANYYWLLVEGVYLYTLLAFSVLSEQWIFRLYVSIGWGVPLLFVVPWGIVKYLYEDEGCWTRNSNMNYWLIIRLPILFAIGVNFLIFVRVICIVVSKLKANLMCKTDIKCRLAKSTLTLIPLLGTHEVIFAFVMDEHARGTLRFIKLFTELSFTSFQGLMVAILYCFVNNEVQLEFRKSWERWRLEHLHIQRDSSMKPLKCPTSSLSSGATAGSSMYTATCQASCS

Assay [2] addresses GLP-1R (Homo sapiens, UniProt P43220, D198A/K202A/Y145A). The assay is described as above. Further details: Flag; expressed in transfected cells. The settings on record: GLP-1R Y145A/D198A/K202A, CHO-K1. The gist of the method: as §1
Assay [3] concerns the target GLP-1R (Homo sapiens, UniProt P43220, K202A). Described as above. Further details: Flag; expressed in transfected cells. The settings on record: GLP-1R K202A, CHO-K1. The essentials: as §1
Assay [4] has as its target GLP-1R (Homo sapiens, UniProt P43220, Q210A). Described as above. Further details: Flag; expressed in transfected cells. The settings on record: GLP-1R Q210A, CHO-K1. The essentials: as §1
Assay [5] deals with GLP-1R (Homo sapiens, UniProt P43220, R134A). The description is as above. Details: Flag; expressed in transfected cells. The settings on record: GLP-1R R134A, CHO-K1. The essentials:
as §1

For assay [6], the target named is GLP-1R (Homo sapiens, UniProt P43220, W39A). Described as above. The settings on record: GLP-1R W39A; CHO-K1. Further details: Flag; expressed in transfected cells. The gist of the method: as §1
GLP-1R (Homo sapiens, UniProt P43220, W39A), sequence (P43220 24-463 W39A): as the sequence (P43220 24-463 D198A) above, with W16A, A175D counted along it
The target of assay [7] is GLP-1R (Homo sapiens, UniProt P43220, W91A). The description is as above. Further details: Flag; expressed in transfected cells. The following applies: GLP-1R W91A, CHO-K1. The gist of the method:
as §1

Assay [8] deals with GLP-1R (Homo sapiens, UniProt P43220, Y205A). The assay is described as above. Details: Flag; expressed in transfected cells. The following applies: GLP-1R Y205A, CHO-K1. The gist of the method: as §1
GLP-1R (Homo sapiens, UniProt P43220, Y205A), sequence (P43220 24-463 Y205A): as the sequence (P43220 24-463 D198A) above, with A175D, Y182A counted along it
Assay [9] addresses GCGR (Homo sapiens, UniProt P47871, Q293A). Nature of the assay: Whole-cell binding assay, competition with 125I-GCG. Further details: V5 (C); 6×His (C); expressed in transfected cells; host or cells: CHO-K1. The settings on record: GCGR Q293A, CHO-K1. The gist of the method: as §1
For assay [10], the target named is GCGR (Homo sapiens, UniProt P47871, R199A). Described as above. The following applies: GCGR R199A, CHO-K1. Further details: V5 (C); 6×His (C); expressed in transfected cells; host or cells: CHO-K1. The gist of the method:
as §1

In assay [11] the target is GCGR (Homo sapiens, UniProt P47871, W87A). The description is as above. Details: V5 (C); 6×His (C); expressed in transfected cells; host or cells: CHO-K1. The following applies: GCGR W87A, CHO-K1. The essentials: as §1
GCGR (Homo sapiens, UniProt P47871, W87A), sequence (P47871 26-477 W87A): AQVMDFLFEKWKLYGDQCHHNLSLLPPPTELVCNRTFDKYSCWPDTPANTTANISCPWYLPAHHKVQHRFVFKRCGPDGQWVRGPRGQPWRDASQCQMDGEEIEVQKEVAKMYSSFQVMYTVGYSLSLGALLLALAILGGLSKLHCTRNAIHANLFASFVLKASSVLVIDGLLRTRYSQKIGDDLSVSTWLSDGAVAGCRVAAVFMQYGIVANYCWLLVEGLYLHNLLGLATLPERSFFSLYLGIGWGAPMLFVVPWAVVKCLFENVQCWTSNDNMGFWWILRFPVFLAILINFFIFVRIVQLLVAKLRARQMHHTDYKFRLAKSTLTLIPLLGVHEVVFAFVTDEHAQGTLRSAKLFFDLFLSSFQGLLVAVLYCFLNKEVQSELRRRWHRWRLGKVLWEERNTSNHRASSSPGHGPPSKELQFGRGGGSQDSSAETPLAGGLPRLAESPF
The target of assay [12] is GCGR (Homo sapiens, UniProt P47871, Y145A). The assay is described as above. Details: V5 (C); 6×His (C); expressed in transfected cells; host or cells: CHO-K1. The settings on record: GCGR Y145A, CHO-K1. The essentials:
as §1

Assay [13] addresses GCGR (Homo sapiens, UniProt P47871, Y202A). Described as above. Further details: V5 (C); 6×His (C); expressed in transfected cells; host or cells: CHO-K1. The following applies: GCGR Y202A, CHO-K1. The essentials: as §1
For assay [14], the target named is T1, GLP-1R (Homo sapiens, UniProt P43220, R299A).
T1 construct: Flag; expressed in transfected cells
T1 sequence (P43220 24-463 R299A): as the sequence (P43220 24-463 D198A) above, with A175D, R276A counted along it
Kind of assay: Whole-cell binding assay, competition with 125I-GLP-1(7-36)NH2. The settings on record: GLP-1R R299A; CHO-K1. How it is done: (§2) Human embryonic kidney 293 cells containing SV40 large T-antigen (HEK293T) were cultured in DMEM (Gibco) supplemented with 10% (v/v) fetal bovine serum (FBS, Gibco), 1 mM sodium pyruvate (Gibco) and 100 units/mL penicillin and 100 μg/mL streptomycin at 37 °C in 5% CO2. Chinese hamster ovary (CHO-K1) cells were cultured in F-12 (Gibco) containing 10% FBS, 100 units/mL penicillin and 100 μg/mL streptomycin at 37 °C in 5% CO2. For cAMP and receptor expression assays, HEK293T cells were seeded into 6-well cell culture plates at a density of 7 × 10^5 cells per well. After overnight incubation, cells were transfected with GIPR, GLP-1R or GCGR construct using Lipofectamine 2000 or Lipofectamine 3000 transfection reagent (Invitrogen). For whole-cell binding assay, CHO-K1 cells were seeded into 96-well fibronectin-treated cell culture plates at a density of 3 × 10^4 cells per well. […] Following 24 h culturing, the transfected cells were ready for use.
(§3) For GLP-1R and GCGR, CHO-K1 cells (30,000 cells/well) were seeded into Isoplate-96 plates and incubated for 24 h at 37 °C in 5% CO2. […] After addition of scintillation cocktail (PerkinElmer), radioactivity (CPM) was counted on a MicroBeta^2 microplate counter (PerkinElmer). Data were normalized to the WT response and analyzed using three-parameter logistic equation.

Assay [15] concerns the target T2, GLP-1R (Homo sapiens, UniProt P43220, Y152A).
T2 construct: Flag; expressed in transfected cells
The assay is described as above. The settings on record: GLP-1R Y152A; CHO-K1. How it is done:
as §2, §3

Setting [16] is: read-out: binding pIC50 (converted).

GLP-1R (Homo sapiens, UniProt P43220, W91A), sequence (P43220 24-463 W91A): as the sequence (P43220 24-463 D198A) above, with W68A, A175D counted along it
GLP-1R (Homo sapiens, UniProt P43220, K202A), sequence (P43220 24-463 K202A): as the sequence (P43220 24-463 D198A) above, with A175D, K179A counted along it
GLP-1R (Homo sapiens, UniProt P43220, D198A/K202A/Y145A), sequence (P43220 24-463 Y145A/D198A/K202A): as the sequence (P43220 24-463 D198A) above, with Y122A, K179A counted along it
GCGR (Homo sapiens, UniProt P47871, Y145A), sequence (P47871 26-477 Y145A): as the sequence (P47871 26-477 W87A) above, with A62W, Y120A counted along it
GCGR (Homo sapiens, UniProt P47871, Y202A), sequence (P47871 26-477 Y202A): as the sequence (P47871 26-477 W87A) above, with A62W, Y177A counted along it
GCGR (Homo sapiens, UniProt P47871, R199A), sequence (P47871 26-477 R199A): as the sequence (P47871 26-477 W87A) above, with A62W, R174A counted along it
GLP-1R (Homo sapiens, UniProt P43220, Q210A), sequence (P43220 24-463 Q210A): as the sequence (P43220 24-463 D198A) above, with A175D, Q187A counted along it
GLP-1R (Homo sapiens, UniProt P43220, R134A), sequence (P43220 24-463 R134A): as the sequence (P43220 24-463 D198A) above, with R111A, A175D counted along it
GCGR (Homo sapiens, UniProt P47871, Q293A), sequence (P47871 26-477 Q293A): as the sequence (P47871 26-477 W87A) above, with A62W, Q268A counted along it
T2 sequence (P43220 24-463 Y152A): as the sequence (P43220 24-463 D198A) above, with Y129A, A175D counted along it

In the case of `CCCCCCCCCCCCCCCC(=O)N[C@@H](CCC(=O)NCCCC[C@H](NC(=O)[C@H](CC(=O)O)NC(=O)[C@H](CO)NC(=O)[C@@H](NC(=O)[C@H](Cc1ccccc1)NC(=O)[C@@H](NC(=O)CNC(=O)[C@H](CCC(N)=O)NC(=O)C(C)(C)NC(=O)[C@@H](N)Cc1c[nH]cn1)[C@@H](C)O)[C@@H](C)O)C(=O)N[C@@H](CO)C(=O)N[C@@H](CCCCN)C(=O)N[C@@H](Cc1ccc(O)cc1)C(=O)N[C@@H](CC(C)C)C(=O)N[C@@H](CC(=O)O)C(=O)N[C@@H](CCC(=O)O)C(=O)N[C@@H](CCCNC(=N)N)C(=O)N[C@@H](C)C(=O)N[C@@H](C)C(=O)N[C@@H](CCC(N)=O)C(=O)N[C@@H](CC(=O)O)C(=O)N[C@@H](Cc1ccccc1)C(=O)N[C@H](C(=O)N[C@@H](CCC(N)=O)C(=O)N[C@@H](Cc1c[nH]c2ccccc12)C(=O)N[C@@H](CC(C)C)C(=O)N[C@@H](CC(C)C)C(=O)N[C@@H](CC(=O)O)C(=O)NCC(=O)NCC(=O)N1CCC[C@H]1C(=O)N[C@@H](CO)C(=O)N[C@@H](CO)C(=O)NCC(=O)N[C@@H](C)C(=O)N1CCC[C@H]1C(=O)N1CCC[C@H]1C(=O)N1CCC[C@H]1C(=O)N[C@@H](CO)C(N)=O)C(C)C)C(=O)O` [Peptide 20], the “binding Span” value at GLP-1R [1] is 1.88 ± 1.66 % WT; on GLP-1R [2] it was 10.85 ± 36.78 % WT; at GLP-1R [3], 15.32 ± 1.82 % WT; at GLP-1R [4], 100.10 ± 5.13 % WT; at GLP-1R [5], 73.44 ± 3.42 % WT; at GLP-1R [6], “N.B”. Also, the “binding Span” value on GLP-1R [7] is recorded as 6.51 ± 2.59 % WT; on GLP-1R [8] it was 6.01 ± 3.17 % WT; on GCGR [9], 135.17 ± 6.41 % WT; at GCGR [10], 59.87 ± 5.43 % WT; at GCGR [11], 4.68 ± 2.95 % WT; on GCGR [12], 4.34 ± 3.92 % WT. Moreover, the “binding Span” value at GCGR [13] was 5.12 ± 1.71 % WT. For the same compound, the IC50 at GLP-1R [1] (setting [16]) is 0.0525 µM; at GLP-1R [2] (setting [16]), 1.78 µM; on GLP-1R [3] (setting [16]), 0.00347 µM; at GLP-1R [4] (setting [16]), 0.00407 µM; at GLP-1R [5] (setting [16]), 0.00302 µM; on GLP-1R [7] (setting [16]), 0.00204 µM. In addition, the IC50 is 0.0501 µM at GLP-1R [8] (setting [16]); 0.132 µM at GCGR [9] (setting [16]); 0.178 µM at GCGR [10] (setting [16]); 0.00151 µM at GCGR [11] (setting [16]); 0.000457 µM on GCGR [12] (setting [16]); 0.0186 µM on GCGR [13] (setting [16]). Moreover, on GLP-1R [6], the “binding pIC50” value is reported as “N.B”.
`CC[C@H](C)[C@H](NC(=O)[C@H](CC(C)C)NC(=O)[C@H](Cc1c[nH]c2ccccc12)NC(=O)[C@H](CCC(N)=O)NC(=O)[C@@H](NC(=O)[C@H](Cc1ccccc1)NC(=O)[C@H](C)NC(=O)[C@H](CCCCNC(=O)COCCOCCNC(=O)COCCOCCNC(=O)CC[C@H](NC(=O)CCCCCCCCCCCCCCCCCCC(=O)O)C(=O)O)NC(=O)[C@H](CCC(N)=O)NC(=O)[C@H](C)NC(=O)[C@@H](NC(=O)[C@H](CCCCN)NC(=O)[C@H](CC(=O)O)NC(=O)[C@H](CC(C)C)NC(=O)C(C)(C)NC(=O)[C@@H](NC(=O)[C@H](CO)NC(=O)[C@H](Cc1ccc(O)cc1)NC(=O)[C@H](CC(=O)O)NC(=O)[C@H](CO)NC(=O)[C@@H](NC(=O)[C@H](Cc1ccccc1)NC(=O)[C@@H](NC(=O)CNC(=O)[C@H](CCC(=O)O)NC(=O)C(C)(C)NC(=O)[C@@H](N)Cc1ccc(O)cc1)[C@@H](C)O)[C@@H](C)O)[C@@H](C)CC)[C@@H](C)CC)C(C)C)C(=O)N[C@@H](C)C(=O)NCC(=O)NCC(=O)N1CCC[C@H]1C(=O)N[C@@H](CO)C(=O)N[C@@H](CO)C(=O)NCC(=O)N[C@@H](C)C(=O)N1CCC[C@H]1C(=O)N1CCC[C@H]1C(=O)N1CCC[C@H]1C(=O)N[C@@H](CO)C(N)=O` [Tirzepatide]: the “binding Span” value on GLP-1R [14] came out at 8.59 ± 1.61 % WT; on GLP-1R [15] it was 11.22 ± 2.82 % WT.

Values taken from PMC8881610 (Nature Communications, 2022).
